Test results as given in patent US11076595B2, “1-(n,n-disubstituted carbamoyl) 4-(substituted sulfonyl)triazolin-5-one derivative, 4-(n,n-disubstituted carbamoyl) 1-(substituted sulfonyl)triazolin-5-one derivative, and herbicide containing said derivative as active ingredient” (HOKKO CHEMICAL INDUSTRY CO., LTD., priority 2017, dated 2021).

What was measured:
Type in all cases: in vivo
[1] = test system: Echinochloa crus-galli; assay: Test Example 11: herbicidal effect test by soil treatment in paddy field; details: 120 g/10a active ingredient, 14 days after treatment
Summary of the method: (§1)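 Seeds were sown 0-1 cm deep in puddled, fertilised paddy soil in Wagner pots and kept under about 3 cm of flooding in a greenhouse. Diluted emulsifiable concentrate was added dropwise right after sowing at 120 g a.i. per 10 are. Suppression (%) came from dry weight versus untreated pots after 14 days, two replicates.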

[2] = test system: Lindernia pyxidaria; assay: as above; details: 120 g/10a active ingredient, 14 days after treatment
Summary of the method: as §1

[3] = test system: Monochoria vaginalis; assay: as above; details: 120 g/10a active ingredient, 14 days after treatment
Summary of the method: as §1

[4] = test system: Scirpus juncoides; assay: as above; details: 120 g/10a active ingredient, 14 days after treatment
Summary of the method: as §1

[5] = test system: Echinochloa crus-galli; assay: Test Example 12: herbicidal effect test by treatment during growing period in paddy field; details: 120 g/10a; treatment seven days after sowing in flooded paddy pot; assessed 14 days after treatment
Summary of the method: (§2)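 Growing-period treatment in flooded paddy pots: the diluted emulsifiable concentrate was dripped in at 120 g a.i. per 10 are seven days after seeding. Inhibition is expressed as percent reduction in dry weight versus untreated pots, measured 14 days later in duplicate.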

[6] = test system: Lindernia pyxidaria; assay: as above; details: 120 g/10a; treatment seven days after sowing in flooded paddy pot; assessed 14 days after treatment
Summary of the method: as §2

[7] = test system: Monochoria vaginalis; assay: as above; details: 120 g/10a; treatment seven days after sowing in flooded paddy pot; assessed 14 days after treatment
Summary of the method: as §2

[8] = test system: Scirpus juncoides; assay: as above; details: 120 g/10a; treatment seven days after sowing in flooded paddy pot; assessed 14 days after treatment
Summary of the method: as §2

Compound | Weed suppression rate (%) Echinochloa crus-galli [1] [%] | Weed suppression rate (%) Lindemia pyxidaria [2] [%] | Weed suppression rate (%) Monochoria vaginalis [3] [%] | Weed suppression rate (%) Scirpus juncoides [4] [%] | Weed suppression rate (%) Echinochloa crus-galli [5] [%] | Weed suppression rate (%) Lindemia pyxidaria [6] [%] | Weed suppression rate (%) Monochoria vaginalis [7] [%] | Weed suppression rate (%) Scirpus juncoides [8] [%]
Cc1ccc(N(C(=O)n2cnn(S(=O)(=O)c3ccccc3Cl)c2=O)C(C)C)c(F)c1 [Compound 11-526] | 90 | 80 | 80 | 90 | 90 | 80 | 80 | 90
CC(C)N(C(=O)n1cnn(S(=O)(=O)c2ccccc2Cl)c1=O)c1ccc(Cl)cn1 [Compound 11-536] | 90 | 90 | 60 | 60 | 90 | 80 | 60 | 90
CC(C)N(C(=O)n1cnn(S(=O)(=O)c2cccc(Cl)c2)c1=O)c1ccc(F)c(F)c1F [Compound 11-553] | 100 | 90 | 70 | 30 | 100 | 70 | 60 | 30
CC(C)N(C(=O)n1cnn(S(=O)(=O)c2cccc(Cl)c2)c1=O)c1c(F)cc(F)cc1F [Compound 11-554] | 100 | 90 | 70 | 70 | 80 | 80 | 80 | 90
Cc1cc(F)ccc1N(C(=O)n1cnn(S(=O)(=O)c2cccc(Cl)c2)c1=O)C(C)C [Compound 11-563] | 100 | 100 | 90 | 100 | 100 | 80 | 80 | 100
CC(C)N(C(=O)n1cnn(S(=O)(=O)c2ccc(Cl)cc2)c1=O)c1cccc(F)c1F [Compound 11-587] | 90 | 80 | 60 | 60 | 90 | 80 | 90 | 90
CC(C)N(C(=O)n1cnn(S(=O)(=O)c2ccc(Cl)cc2)c1=O)c1ccc(F)c(F)c1F [Compound 11-591] | 100 | 90 | 70 | 60 | 60 | 70 | 70 | 100
CC(C)N(C(=O)n1cnn(S(=O)(=O)c2ccc(Cl)cc2)c1=O)c1c(F)cc(F)cc1F [Compound 11-592] | 100 | 100 | 90 | 80 | 100 | 80 | 100 | 80
Cc1cc(F)ccc1N(C(=O)n1cnn(S(=O)(=O)c2ccc(Cl)cc2)c1=O)C(C)C [Compound 11-601] | 70 | 80 | 80 | 60 | 60 | 70 | 70 | 60
CC(C)N(C(=O)n1cnn(S(=O)(=O)c2ccc(Cl)cc2)c1=O)c1ccc(Cl)cn1 [Compound 11-612] | 100 | 100 | 70 | 70 | 80 | 90 | 70 | 90
Cc1ccc(S(=O)(=O)n2ncn(C(=O)N(c3ccccc3F)C(C)C)c2=O)cc1 [Compound 11-627] | 90 | 80 | 80 | 90 | 90 | 80 | 80 | 90
Cc1ccc(S(=O)(=O)n2ncn(C(=O)N(c3cccc(F)c3)C(C)C)c2=O)cc1 [Compound 11-628] | 90 | 80 | 80 | 90 | 90 | 80 | 80 | 90
Cc1ccc(S(=O)(=O)n2ncn(C(=O)N(c3cccc(F)c3F)C(C)C)c2=O)cc1 [Compound 11-636] | 100 | 100 | 100 | 90 | 100 | 80 | 100 | 100
Cc1ccc(S(=O)(=O)n2ncn(C(=O)N(c3c(F)cccc3F)C(C)C)c2=O)cc1 [Compound 11-639] | 100 | 100 | 70 | 100 | 100 | 70 | 70 | 70
Cc1ccc(S(=O)(=O)n2ncn(C(=O)N(c3ccc(F)c(F)c3F)C(C)C)c2=O)cc1 [Compound 11-640] | 100 | 100 | 70 | 90 | 80 | 70 | 100 | 90
